In patent US9527869B2, “Indolizine derivatives as phoshoinositide 3-kinases inhibitors” (CHIESI FARMACEUTICI S.P.A., priority 2014, dated 2016):

Columns and labels:
Format in all cases: biochemical
PI3Kα = molecular target: T1, PI3Kα (Homo sapiens, UniProt P42336); assay: In vitro determination of the PI3K enzyme inhibitory activity in the cell free assay (ADP-Glo Kinase Assay), PI3Kα; details: ATP 50 μM, read-out: PI3K alpha inhibition
T1 construct: purchased Millipore Ltd (Billerica, Mass.)
In short: (§1)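 IC50 values came from four-parameter logistic fitting of ADP-Glo luminescence after 60 min kinase reactions at room temperature. ATP (final) was set per isoform: α 50 μM, β 100 μM, γ 30 μM, δ 80 μM. Substrates were phosphatidylinositol and phosphatidylserine (50 μM in 2× Tris pH 7.5 buffer), with human recombinant enzymes.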

PI3Kβ = molecular target: T2, PI3Kβ (Homo sapiens, UniProt P42338); assay: In vitro determination of the PI3K enzyme inhibitory activity in the cell free assay (ADP-Glo Kinase Assay), PI3Kβ; details: ATP 100 μM, read-out: PI3K beta inhibition
T2 construct: purchased Millipore Ltd (Billerica, Mass.)
T2 sequence (P42338 whole entry): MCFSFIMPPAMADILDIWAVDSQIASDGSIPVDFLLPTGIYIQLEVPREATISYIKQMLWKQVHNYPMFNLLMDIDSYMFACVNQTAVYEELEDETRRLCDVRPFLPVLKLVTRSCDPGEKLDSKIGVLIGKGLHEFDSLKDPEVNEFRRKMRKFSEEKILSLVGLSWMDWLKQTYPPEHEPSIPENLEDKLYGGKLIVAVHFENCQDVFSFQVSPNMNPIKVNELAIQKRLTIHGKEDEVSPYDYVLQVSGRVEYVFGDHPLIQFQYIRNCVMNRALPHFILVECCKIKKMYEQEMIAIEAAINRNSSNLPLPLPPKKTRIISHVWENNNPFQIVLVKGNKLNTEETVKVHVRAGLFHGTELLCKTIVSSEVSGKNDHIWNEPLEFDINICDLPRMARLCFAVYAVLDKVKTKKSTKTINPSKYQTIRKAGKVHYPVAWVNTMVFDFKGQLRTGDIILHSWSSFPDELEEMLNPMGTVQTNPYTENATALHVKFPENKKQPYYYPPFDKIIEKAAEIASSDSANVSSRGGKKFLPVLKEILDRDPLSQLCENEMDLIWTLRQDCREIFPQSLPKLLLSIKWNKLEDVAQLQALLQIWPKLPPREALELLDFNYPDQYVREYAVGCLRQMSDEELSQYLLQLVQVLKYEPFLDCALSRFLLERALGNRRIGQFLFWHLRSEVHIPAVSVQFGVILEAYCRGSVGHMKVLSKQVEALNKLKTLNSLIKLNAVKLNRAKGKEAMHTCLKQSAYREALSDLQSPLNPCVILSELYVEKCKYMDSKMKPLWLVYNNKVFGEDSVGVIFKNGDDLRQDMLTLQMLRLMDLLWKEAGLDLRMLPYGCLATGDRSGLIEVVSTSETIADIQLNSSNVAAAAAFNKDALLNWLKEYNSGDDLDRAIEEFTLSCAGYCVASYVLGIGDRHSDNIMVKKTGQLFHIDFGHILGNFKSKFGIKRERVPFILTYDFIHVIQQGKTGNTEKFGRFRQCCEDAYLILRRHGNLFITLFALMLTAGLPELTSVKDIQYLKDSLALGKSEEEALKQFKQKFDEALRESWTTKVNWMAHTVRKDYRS
T2 sequence (P27986 whole entry partner): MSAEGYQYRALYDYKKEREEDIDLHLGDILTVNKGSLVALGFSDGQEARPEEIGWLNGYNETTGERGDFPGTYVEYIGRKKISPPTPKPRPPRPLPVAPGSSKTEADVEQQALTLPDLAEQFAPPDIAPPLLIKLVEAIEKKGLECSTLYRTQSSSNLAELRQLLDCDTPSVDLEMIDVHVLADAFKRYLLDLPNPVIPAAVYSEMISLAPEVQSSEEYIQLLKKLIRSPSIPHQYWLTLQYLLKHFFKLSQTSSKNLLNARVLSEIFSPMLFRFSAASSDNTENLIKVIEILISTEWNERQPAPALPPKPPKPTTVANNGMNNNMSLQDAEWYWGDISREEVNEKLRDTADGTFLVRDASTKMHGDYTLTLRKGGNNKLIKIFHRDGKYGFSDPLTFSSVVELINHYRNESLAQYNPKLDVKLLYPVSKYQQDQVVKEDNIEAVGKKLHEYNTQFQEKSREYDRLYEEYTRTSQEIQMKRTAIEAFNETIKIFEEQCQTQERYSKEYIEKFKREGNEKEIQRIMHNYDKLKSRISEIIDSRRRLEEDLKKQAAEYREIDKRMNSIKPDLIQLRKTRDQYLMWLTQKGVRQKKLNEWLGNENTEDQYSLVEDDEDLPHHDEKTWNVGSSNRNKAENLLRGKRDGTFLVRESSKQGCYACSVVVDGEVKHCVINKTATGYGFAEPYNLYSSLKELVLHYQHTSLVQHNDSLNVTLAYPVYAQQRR
In short: as §1

PI3Kγ = molecular target: T3, PI3Kγ (Homo sapiens, UniProt P48736); assay: In vitro determination of the PI3K enzyme inhibitory activity in the cell free assay (ADP-Glo Kinase Assay), PI3Kγ; details: ATP 30 μM, read-out: PI3K gamma inhibition
T3 construct: purchased Millipore Ltd (Billerica, Mass.)
T3 sequence (P48736 whole entry): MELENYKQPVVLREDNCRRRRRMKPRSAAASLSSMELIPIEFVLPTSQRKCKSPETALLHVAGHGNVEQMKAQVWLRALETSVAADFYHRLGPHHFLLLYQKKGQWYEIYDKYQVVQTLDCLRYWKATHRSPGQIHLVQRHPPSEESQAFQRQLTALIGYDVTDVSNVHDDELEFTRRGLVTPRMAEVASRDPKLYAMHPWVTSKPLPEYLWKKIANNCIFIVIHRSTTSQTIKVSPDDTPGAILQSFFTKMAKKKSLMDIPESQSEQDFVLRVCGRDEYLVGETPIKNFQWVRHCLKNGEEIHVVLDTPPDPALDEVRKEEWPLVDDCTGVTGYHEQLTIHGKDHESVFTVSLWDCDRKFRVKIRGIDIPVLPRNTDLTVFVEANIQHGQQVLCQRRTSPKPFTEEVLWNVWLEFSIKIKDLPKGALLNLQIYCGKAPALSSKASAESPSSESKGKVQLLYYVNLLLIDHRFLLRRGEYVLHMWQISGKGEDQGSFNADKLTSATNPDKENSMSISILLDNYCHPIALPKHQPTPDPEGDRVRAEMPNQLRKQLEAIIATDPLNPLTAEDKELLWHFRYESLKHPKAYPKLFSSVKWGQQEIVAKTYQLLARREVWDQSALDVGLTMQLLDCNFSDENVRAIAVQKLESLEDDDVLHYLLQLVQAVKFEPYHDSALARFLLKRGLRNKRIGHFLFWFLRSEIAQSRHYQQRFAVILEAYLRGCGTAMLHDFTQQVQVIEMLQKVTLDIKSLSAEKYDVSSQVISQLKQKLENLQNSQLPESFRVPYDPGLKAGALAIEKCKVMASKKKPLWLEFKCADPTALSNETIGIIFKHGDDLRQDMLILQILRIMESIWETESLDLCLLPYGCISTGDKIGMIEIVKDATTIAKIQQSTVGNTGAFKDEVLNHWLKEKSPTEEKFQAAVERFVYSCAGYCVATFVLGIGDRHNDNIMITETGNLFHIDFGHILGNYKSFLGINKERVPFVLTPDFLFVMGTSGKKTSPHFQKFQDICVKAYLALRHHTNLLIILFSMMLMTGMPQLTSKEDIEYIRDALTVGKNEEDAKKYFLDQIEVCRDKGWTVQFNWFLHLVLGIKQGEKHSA
In short: as §1

PI3Kδ = molecular target: T4, PI3Kδ (Homo sapiens, UniProt O00329); assay: In vitro determination of the PI3K enzyme inhibitory activity in the cell free assay (ADP-Glo Kinase Assay), PI3Kδ; details: ATP 80 μM, read-out: PI3K delta inhibition
T4 construct: purchased Millipore Ltd (Billerica, Mass.)
T4 sequence (O00329 whole entry): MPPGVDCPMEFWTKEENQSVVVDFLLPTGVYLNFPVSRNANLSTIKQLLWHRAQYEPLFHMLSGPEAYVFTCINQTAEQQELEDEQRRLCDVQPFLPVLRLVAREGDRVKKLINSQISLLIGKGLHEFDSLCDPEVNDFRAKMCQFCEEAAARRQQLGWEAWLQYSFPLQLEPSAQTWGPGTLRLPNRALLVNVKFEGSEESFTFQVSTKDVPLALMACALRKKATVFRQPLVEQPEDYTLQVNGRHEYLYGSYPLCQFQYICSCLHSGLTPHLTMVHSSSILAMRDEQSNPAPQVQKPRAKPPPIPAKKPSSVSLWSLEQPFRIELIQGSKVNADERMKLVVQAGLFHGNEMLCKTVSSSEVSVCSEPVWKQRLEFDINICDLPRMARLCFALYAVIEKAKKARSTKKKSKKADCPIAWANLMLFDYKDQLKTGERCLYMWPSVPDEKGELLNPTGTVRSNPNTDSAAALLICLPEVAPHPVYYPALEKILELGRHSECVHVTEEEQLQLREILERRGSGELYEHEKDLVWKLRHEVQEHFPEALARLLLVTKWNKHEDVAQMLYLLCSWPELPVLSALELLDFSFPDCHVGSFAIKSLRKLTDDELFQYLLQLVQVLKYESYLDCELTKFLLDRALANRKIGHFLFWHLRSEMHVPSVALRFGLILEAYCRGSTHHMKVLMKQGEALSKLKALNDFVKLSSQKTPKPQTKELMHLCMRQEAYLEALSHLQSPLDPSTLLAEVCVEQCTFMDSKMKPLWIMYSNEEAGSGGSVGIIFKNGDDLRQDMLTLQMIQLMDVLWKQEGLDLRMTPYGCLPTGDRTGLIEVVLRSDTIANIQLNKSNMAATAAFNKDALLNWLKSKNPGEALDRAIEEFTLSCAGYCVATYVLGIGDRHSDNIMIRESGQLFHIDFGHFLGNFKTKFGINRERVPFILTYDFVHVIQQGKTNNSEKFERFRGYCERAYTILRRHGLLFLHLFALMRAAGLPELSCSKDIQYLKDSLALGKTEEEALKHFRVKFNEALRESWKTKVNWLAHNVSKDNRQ
T4 sequence (P27986 whole entry partner): as the sequence (P27986 whole entry partner) above
In short: as §1

T1 sequence (P42336 whole entry): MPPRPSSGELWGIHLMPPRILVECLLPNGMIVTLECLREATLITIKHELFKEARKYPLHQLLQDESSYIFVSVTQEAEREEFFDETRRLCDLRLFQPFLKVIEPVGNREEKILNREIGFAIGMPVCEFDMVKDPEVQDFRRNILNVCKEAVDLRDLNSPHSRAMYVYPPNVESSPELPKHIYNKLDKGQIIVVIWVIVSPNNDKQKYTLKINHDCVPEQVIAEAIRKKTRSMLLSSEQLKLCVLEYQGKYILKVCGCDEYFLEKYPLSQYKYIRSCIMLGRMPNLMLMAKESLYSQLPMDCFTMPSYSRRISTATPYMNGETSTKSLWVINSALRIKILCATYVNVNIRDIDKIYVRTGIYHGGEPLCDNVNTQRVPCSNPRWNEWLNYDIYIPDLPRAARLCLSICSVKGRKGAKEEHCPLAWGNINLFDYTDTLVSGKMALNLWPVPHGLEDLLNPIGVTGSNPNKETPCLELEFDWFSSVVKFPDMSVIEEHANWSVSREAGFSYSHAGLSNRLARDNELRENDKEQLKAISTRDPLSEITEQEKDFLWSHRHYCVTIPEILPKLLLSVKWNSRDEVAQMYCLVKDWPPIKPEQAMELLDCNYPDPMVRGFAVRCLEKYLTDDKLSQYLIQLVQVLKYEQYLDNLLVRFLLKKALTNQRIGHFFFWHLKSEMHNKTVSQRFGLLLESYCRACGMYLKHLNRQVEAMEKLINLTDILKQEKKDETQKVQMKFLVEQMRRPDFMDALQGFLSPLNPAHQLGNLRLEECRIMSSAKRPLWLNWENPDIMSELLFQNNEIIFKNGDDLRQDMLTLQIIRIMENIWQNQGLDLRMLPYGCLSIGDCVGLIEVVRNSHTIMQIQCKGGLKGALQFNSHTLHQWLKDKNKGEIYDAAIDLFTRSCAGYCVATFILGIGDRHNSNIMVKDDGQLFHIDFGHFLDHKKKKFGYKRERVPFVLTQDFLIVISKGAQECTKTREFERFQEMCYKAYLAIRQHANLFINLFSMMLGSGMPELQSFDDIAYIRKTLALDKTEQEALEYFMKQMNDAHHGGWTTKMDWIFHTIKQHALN
T1 sequence (P27986 whole entry partner): as the sequence (P27986 whole entry partner) above

Nc1ncnc2c1c(-c1cc(O)cc(F)c1)nn2Cc1cc2ccccn2c1-c1ccncc1 [Example 99, 3-(4-amino-1-{[3-(pyridin-4-yl)indolizin-2-yl]methyl}-1H-pyrazolo[3,4-d]pyrimidin-3-yl)-5-fluorophenol]
IC50 (PI3Kα): 0.01 to 1 µM
IC50 (PI3Kβ): 0.01 to 1 µM
IC50 (PI3Kγ): 0.01 to 1 µM
IC50 (PI3Kδ): < 0.01 µM

Nc1ncnc2c1c(-c1cc(O)cc(F)c1)nn2Cc1cc2cccnn2c1-c1ccccn1 [Example 100, 3-(4-amino-1-{[7-(pyridin-2-yl)pyrrolo[1,2-b]pyridazin-6-yl]methyl}-1H-pyrazolo[3,4-d]pyrimidin-3-yl)-5-fluorophenol]
IC50 (PI3Kα): > 1 µM
IC50 (PI3Kβ): 0.01 to 1 µM
IC50 (PI3Kγ): 0.01 to 1 µM
IC50 (PI3Kδ): < 0.01 µM

CC(c1cc2ccccn2c1C1=CCNCC1)n1nc(-c2cc(O)cc(F)c2)c2c(N)ncnc21 (centres unmarked) [Example 101, 3-(4-amino-1-{1-[3-(1,2,3,6-tetrahydropyridin-4-yl)indolizin-2-yl]ethyl}-1H-pyrazolo[3,4-d]pyrimidin-3-yl)-5-fluorophenol]
IC50 (PI3Kα): > 1 µM
IC50 (PI3Kβ): 0.01 to 1 µM
IC50 (PI3Kγ): > 1 µM
IC50 (PI3Kδ): 0.01 to 1 µM

CC(c1cc2ccccn2c1-c1ccccn1)n1nc(C#CCO)c2c(N)ncnc21 (centres unmarked) [Example 102, 3-(4-amino-1-{1-[3-(pyridin-2-yl)indolizin-2-yl]ethyl}-1H-pyrazolo[3,4-d]pyrimidin-3-yl)prop-2-yn-1-ol]
IC50 (PI3Kα): > 1 µM
IC50 (PI3Kβ): > 1 µM
IC50 (PI3Kγ): > 1 µM
IC50 (PI3Kδ): 0.01 to 1 µM

CC(c1cc2ccccn2c1-c1ccccn1)n1nc(-c2cnc(N)s2)c2c(N)ncnc21 (centres unmarked) [Example 103, 5-(4-amino-1-{1-[3-(pyridin-2-yl)indolizin-2-yl]ethyl}-1H-pyrazolo[3,4-d]pyrimidin-3-yl)-1,3-thiazol-2-amine]
IC50 (PI3Kα): > 1 µM
IC50 (PI3Kβ): 0.01 to 1 µM
IC50 (PI3Kγ): 0.01 to 1 µM
IC50 (PI3Kδ): 0.01 to 1 µM

CC(c1cc2cc(Cl)ccn2c1-c1ccccn1)n1nc(-c2cc(O)cc(F)c2)c2c(N)ncnc21 (centres unmarked) [Example 104, 3-(4-amino-1-{1-[7-chloro-3-(pyridin-2-yl)indolizin-2-yl]ethyl}-1H-pyrazolo[3,4-d]pyrimidin-3-yl)-5-fluorophenol]
IC50 (PI3Kα): 0.01 to 1 µM
IC50 (PI3Kβ): 0.01 to 1 µM
IC50 (PI3Kγ): 0.01 to 1 µM
IC50 (PI3Kδ): < 0.01 µM

Cc1ccn2c(-c3ccccn3)c(C(C)n3nc(-c4cc(O)cc(F)c4)c4c(N)ncnc43)cc2c1 (centres unmarked) [Example 105, 3-(4-amino-1-{1-[7-methyl-3-(pyridin-2-yl)indolizin-2-yl]ethyl}-1H-pyrazolo[3,4-d]pyrimidin-3-yl)-5-fluorophenol]
IC50 (PI3Kα): > 1 µM
IC50 (PI3Kβ): > 1 µM
IC50 (PI3Kγ): > 1 µM
IC50 (PI3Kδ): 0.01 to 1 µM

Cc1cc(-c2c(C(C)n3nc(-c4cc(O)cc(F)c4)c4c(N)ncnc43)cc3ccccn23)ccn1 (centres unmarked) [Example 106, 3-(4-amino-1-{1-[3-(2-methylpyridin-4-yl)indolizin-2-yl]ethyl}-1H-pyrazolo[3,4-d]pyrimidin-3-yl)-5-fluorophenol]
IC50 (PI3Kα): > 1 µM
IC50 (PI3Kβ): 0.01 to 1 µM
IC50 (PI3Kγ): 0.01 to 1 µM
IC50 (PI3Kδ): < 0.01 µM

Cc1cc(-c2c(C(C)n3nc(-c4cncc(O)c4)c4c(N)ncnc43)cc3ccccn23)ccn1 (centres unmarked) [Example 107, 5-(4-amino-1-{1-[3-(2-methylpyridin-4-yl)indolizin-2-yl]ethyl}-1H-pyrazolo[3,4-d]pyrimidin-3-yl)pyridin-3-ol]
IC50 (PI3Kα): > 1 µM
IC50 (PI3Kβ): 0.01 to 1 µM
IC50 (PI3Kγ): 0.01 to 1 µM
IC50 (PI3Kδ): < 0.01 µM

CC(c1cc2ccccn2c1-c1ccc(CN2CCOCC2)cn1)n1nc(-c2cc(O)cc(F)c2)c2c(N)ncnc21 (centres unmarked) [Example 108, 3-[4-amino-1-(1-{3-[5-(morpholin-4-ylmethyl)pyridin-2-yl]indolizin-2-yl}ethyl)-1H-pyrazolo[3,4-d]pyrimidin-3-yl]-5-fluorophenol]
IC50 (PI3Kα): > 1 µM
IC50 (PI3Kβ): 0.01 to 1 µM
IC50 (PI3Kγ): > 1 µM
IC50 (PI3Kδ): < 0.01 µM

CC(c1cc2ccccn2c1-c1ccc(CN(C)C)cn1)n1nc(-c2cc(O)cc(F)c2)c2c(N)ncnc21 (centres unmarked) [Example 109, 3-{4-amino-1-[1-(3-{5-[(dimethylamino)-methyl]pyridin-2-yl}indolizin-2-yl)ethyl]-1H-pyrazolo[3,4-d]pyrimidin-3-yl}-5-fluorophenol]
IC50 (PI3Kα): > 1 µM
IC50 (PI3Kβ): 0.01 to 1 µM
IC50 (PI3Kγ): > 1 µM
IC50 (PI3Kδ): 0.01 to 1 µM

CC(c1cc2ccccn2c1-c1cccc(CN2CCOCC2)n1)n1nc(-c2cc(O)cc(F)c2)c2c(N)ncnc21 (centres unmarked) [Example 110, 3-[4-amino-1-(1-{3-[6-(morpholin-4-ylmethyl)pyridin-2-yl]indolizin-2-yl}ethyl)-1H-pyrazolo[3,4-d]-pyrimidin-3-yl]-5-fluorophenol]
IC50 (PI3Kα): > 1 µM
IC50 (PI3Kβ): 0.01 to 1 µM
IC50 (PI3Kγ): > 1 µM
IC50 (PI3Kδ): < 0.01 µM

CC(c1cc2ccccn2c1-c1cc(CN2CCOCC2)ccn1)n1nc(-c2cc(O)cc(F)c2)c2c(N)ncnc21 (centres unmarked) [Example 111, 3-[4-amino-1-(1-{3-[4-(morpholin-4-ylmethyl)pyridin-2-yl]indolizin-2-yl}ethyl)-1H-pyrazolo[3,4-d]-pyrimidin-3-yl]-5-fluorophenol]
IC50 (PI3Kα): > 1 µM
IC50 (PI3Kβ): 0.01 to 1 µM
IC50 (PI3Kγ): 0.01 to 1 µM
IC50 (PI3Kδ): < 0.01 µM

CC(c1cc2ccccn2c1-c1cc(CN(C)C)ccn1)n1nc(-c2cc(O)cc(F)c2)c2c(N)ncnc21 (centres unmarked) [Example 112, 3-{4-amino-1-[1-(3-{4-[(dimethylamino)-methyl]pyridin-2-yl}indolizin-2-yl)-ethyl]-1H-pyrazolo[3,4-d]pyrimidin-3-yl}-5-fluorophenol]
IC50 (PI3Kα): 0.01 to 1 µM
IC50 (PI3Kβ): 0.01 to 1 µM
IC50 (PI3Kγ): 0.01 to 1 µM
IC50 (PI3Kδ): < 0.01 µM

CC(c1cc2ccccn2c1-c1ccc(CN2CCCC2)cn1)n1nc(-c2cc(O)cc(F)c2)c2c(N)ncnc21 (centres unmarked) [Example 113, 3-[4-amino-1-(1-{3-[5-(pyrrolidin-1-ylmethyl)pyridin-2-yl]indolizin-2-yl}ethyl)-1H-pyrazolo[3,4-d]pyrimidin-3-yl]-5-fluorophenol]
IC50 (PI3Kα): > 1 µM
IC50 (PI3Kβ): 0.01 to 1 µM
IC50 (PI3Kγ): > 1 µM
IC50 (PI3Kδ): < 0.01 µM

CC(c1cc2ccccn2c1-c1ccc(CN2CCN(C)CC2)cn1)n1nc(-c2cc(O)cc(F)c2)c2c(N)ncnc21 (centres unmarked) [Example 114, 3-{4-amino-1-[1-(3-{5-[(4-methylpiperazin-1-yl)methyl]pyridin-2-yl}indolizin-2-yl)ethyl]-1H-pyrazolo-[3,4-d]pyrimidin-3-yl}-5-fluorophenol]
IC50 (PI3Kα): > 1 µM
IC50 (PI3Kβ): 0.01 to 1 µM
IC50 (PI3Kγ): > 1 µM
IC50 (PI3Kδ): < 0.01 µM

CC(c1cc2ccccn2c1-c1cccc(CN2CCN(C)CC2)n1)n1nc(-c2cc(O)cc(F)c2)c2c(N)ncnc21 (centres unmarked) [Example 115, 3-{4-amino-1-[1-(3-{6-[(4-methylpiperazin-1-yl)methyl]pyridin-2-yl}indolizin-2-yl)ethyl]-1H-pyrazolo-[3,4-d]pyrimidin-3-yl}-5-fluorophenol]
IC50 (PI3Kα): 0.01 to 1 µM
IC50 (PI3Kβ): 0.01 to 1 µM
IC50 (PI3Kγ): 0.01 to 1 µM
IC50 (PI3Kδ): 0.01 to 1 µM

CC(c1cc2ccccn2c1-c1cc(CN2CCN(C)CC2)ccn1)n1nc(-c2cc(O)cc(F)c2)c2c(N)ncnc21 (centres unmarked) [Example 116, 3-{4-amino-1-[1-(3-{4-[(4-methylpiperazin-1-yl)methyl]pyridin-2-yl}indolizin-2-yl)ethyl]-1H-pyrazolo-[3,4-d]pyrimidin-3-yl}-5-fluorophenol]
IC50 (PI3Kα): 0.01 to 1 µM
IC50 (PI3Kβ): 0.01 to 1 µM
IC50 (PI3Kγ): 0.01 to 1 µM
IC50 (PI3Kδ): < 0.01 µM

CC(c1cc2ccccn2c1-c1ccc(CN(CCO)CCO)cn1)n1nc(-c2cc(O)cc(F)c2)c2c(N)ncnc21 (centres unmarked) [Example 117, 3-(4-amino-1-{1-[3-(5-{[bis(2-hydroxyethyl)amino]methyl}pyridin-2-yl)indolizin-2-yl]ethyl}-1H-pyrazolo[3,4-d]pyrimidin-3-yl)-5-fluorophenol]
IC50 (PI3Kα): > 1 µM
IC50 (PI3Kβ): 0.01 to 1 µM
IC50 (PI3Kγ): > 1 µM
IC50 (PI3Kδ): < 0.01 µM

CC(c1cc2ccccn2c1-c1ccc(OCCN2CCOCC2)cn1)n1nc(-c2cc(O)cc(F)c2)c2c(N)ncnc21 (centres unmarked) [Example 119, 3-{4-amino-1-[1-(3-{5-[2-(morpholin-4-yl)ethoxy]pyridin-2-yl}indolizin-2-yl)ethyl]-1H-pyrazolo[3,4-d]-pyrimidin-3-yl}-5-fluorophenol]
IC50 (PI3Kα): > 1 µM
IC50 (PI3Kβ): 0.01 to 1 µM
IC50 (PI3Kγ): > 1 µM
IC50 (PI3Kδ): < 0.01 µM

CC(c1cc2ccccn2c1-c1ccc(=O)n(CCN2CCOCC2)c1)n1nc(-c2cc(O)cc(F)c2)c2c(N)ncnc21 (centres unmarked) [Example 120, 5-(2-{1-[4-amino-3-(3-fluoro-5-hydroxyphenyl)-1H-pyrazolo[3,4-d]pyrimidin-1-yl]ethyl}-indolizin-3-yl)-1-[2-(morpholin-4-yl)ethyl]-1,2-dihydropyridin-2-one]
IC50 (PI3Kα): > 1 µM
IC50 (PI3Kβ): > 1 µM
IC50 (PI3Kγ): 0.01 to 1 µM
IC50 (PI3Kδ): < 0.01 µM

CC(c1cc2ccccn2c1-c1ccn(CCN2CCOCC2)c(=O)c1)n1nc(-c2cc(O)cc(F)c2)c2c(N)ncnc21 (centres unmarked) [Example 121, 4-(2-{1-[4-amino-3-(3-fluoro-5-hydroxyphenyl)-1H-pyrazolo[3,4-d]pyrimidin-1-yl]ethyl}-indolizin-3-yl)-1-[2-(morpholin-4-yl)ethyl]-1,2-dihydropyridin-2-one]
IC50 (PI3Kα): > 1 µM
IC50 (PI3Kβ): 0.01 to 1 µM
IC50 (PI3Kγ): 0.01 to 1 µM
IC50 (PI3Kδ): < 0.01 µM

CC(c1cc2ccccn2c1-c1ccn(CCN2CCOCC2)c(=O)c1)n1nc(-c2cncc(O)c2)c2c(N)ncnc21 (centres unmarked) [Example 122, 4-(2-{1-[4-amino-3-(5-hydroxypyridin-3-yl)-1H-pyrazolo[3,4-d]pyrimidin-1-yl]ethyl}indolizin-3-yl)-1-[2-(morpholin-4-yl)ethyl]-1,2-dihydropyridin-2-one]
IC50 (PI3Kα): > 1 µM
IC50 (PI3Kβ): 0.01 to 1 µM
IC50 (PI3Kγ): > 1 µM
IC50 (PI3Kδ): < 0.01 µM
